From patent US20260146035A1, “FUSED BICYCLIC COMPOUNDS AND THEIR USE AS MER AND AXL INHIBITORS” (DONG-A ST CO., LTD., priority 2022, published 2026)

Experiments:
human MER (528-end) = biological target: T1, human MER (528-end) (Homo sapiens, UniProt Q12866); experiment: HTRF kinase activity biochemical assay, MER; conditions: 10 μM ATP, 30 minutes pre-incubation; read-out: HTRF MERTK IC50
T1 construct: human MER (528-end); purchased Camnabio, Japan
T1 sequence (Q12866 528-999 limits assumed): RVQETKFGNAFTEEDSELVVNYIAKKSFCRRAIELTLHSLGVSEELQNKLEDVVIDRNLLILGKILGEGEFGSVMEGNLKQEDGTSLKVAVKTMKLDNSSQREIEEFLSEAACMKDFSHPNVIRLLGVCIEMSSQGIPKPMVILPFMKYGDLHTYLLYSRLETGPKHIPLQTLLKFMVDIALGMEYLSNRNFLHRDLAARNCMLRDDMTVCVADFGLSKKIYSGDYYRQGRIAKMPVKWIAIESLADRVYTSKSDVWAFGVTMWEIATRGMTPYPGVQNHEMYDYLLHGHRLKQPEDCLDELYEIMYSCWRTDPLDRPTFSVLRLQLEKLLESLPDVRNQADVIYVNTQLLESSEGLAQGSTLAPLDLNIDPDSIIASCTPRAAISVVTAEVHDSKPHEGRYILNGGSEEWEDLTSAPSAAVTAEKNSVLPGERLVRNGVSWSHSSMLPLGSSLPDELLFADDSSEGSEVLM

human AXL (473-end) = biological target: T2, human AXL (473-end) (Homo sapiens, UniProt P30530); experiment: HTRF kinase activity biochemical assay, AXL; conditions: 10 μM ATP, 30 minutes pre-incubation
T2 construct: human AXL (473-end); purchased SignalChem, Canada
T2 sequence (P30530 473-894 limits assumed): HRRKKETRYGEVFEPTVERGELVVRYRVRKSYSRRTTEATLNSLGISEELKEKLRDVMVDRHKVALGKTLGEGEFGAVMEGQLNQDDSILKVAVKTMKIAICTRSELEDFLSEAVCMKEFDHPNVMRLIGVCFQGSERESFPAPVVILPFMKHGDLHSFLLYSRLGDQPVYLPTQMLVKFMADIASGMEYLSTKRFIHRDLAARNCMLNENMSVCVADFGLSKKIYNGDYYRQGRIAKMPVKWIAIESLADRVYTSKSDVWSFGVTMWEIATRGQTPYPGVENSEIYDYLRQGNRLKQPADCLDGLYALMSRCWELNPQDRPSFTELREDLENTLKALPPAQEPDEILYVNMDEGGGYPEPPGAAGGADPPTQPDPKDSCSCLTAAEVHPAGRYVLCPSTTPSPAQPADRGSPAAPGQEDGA

human TYRO3 (455-end) = biological target: T3, human TYRO3 (455-end) (Homo sapiens, UniProt Q06418); experiment: HTRF kinase activity biochemical assay, TYRO3; conditions: 10 μM ATP, 30 minutes pre-incubation; read-out: HTRF TYRO IC50
T3 construct: TYRO3 (455-end); purchased SignalChem, Canada
T3 sequence (Q06418 455-890 limits assumed): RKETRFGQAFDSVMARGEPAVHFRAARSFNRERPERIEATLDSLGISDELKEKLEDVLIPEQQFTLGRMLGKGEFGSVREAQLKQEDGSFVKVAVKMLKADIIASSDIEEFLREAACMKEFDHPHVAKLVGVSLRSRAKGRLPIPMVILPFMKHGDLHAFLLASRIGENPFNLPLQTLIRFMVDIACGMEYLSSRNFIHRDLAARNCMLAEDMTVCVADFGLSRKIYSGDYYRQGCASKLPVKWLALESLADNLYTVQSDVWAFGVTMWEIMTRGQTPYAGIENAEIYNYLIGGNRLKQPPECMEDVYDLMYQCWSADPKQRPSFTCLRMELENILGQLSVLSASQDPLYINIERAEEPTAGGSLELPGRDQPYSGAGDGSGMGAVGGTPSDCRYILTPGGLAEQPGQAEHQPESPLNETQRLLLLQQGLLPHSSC

IC50 (human MER (528-end)) [nM] | IC50 (human AXL (473-end)) [nM] | IC50 (human TYRO3 (455-end)) [nM] | SMILES
< 10 | < 10 | 10 to 100 | Nc1ncc(-c2cccnc2F)cc1C(=O)N[C@H]1CCC[C@@H]1OCc1ccc(-c2ccc3c(c2)CCCC3N2CCN(CCO)CC2)cc1 (stereo partly drawn) [Example 149, 6-amino-2′-fluoro-N-{(1S,2S)-2-[(4-{5-[4-(2-hydroxyethyl)piperazin-1-yl]-5,6,7,8-tetrahydronaphthalen-2-yl}phenyl)methoxy]cyclopentyl}[3,3′-bipyridine]-5-carboxamide]
< 10 | < 10 | 10 to 100 | CN1CCN([C@H]2CC(C)(C)c3cc(-c4ccc(CO[C@H]5CCC[C@@H]5NC(=O)c5cc(-c6cccnc6F)cnc5N)cc4)ccc32)CC1 [Example 150, 6-amino-N-[(1S,2S)-2-({4-[(1S)-3,3-dimethyl-1-(4-methylpiperazin-1-yl)-2,3-dihydro-1H-inden-5-yl]phenyl}methoxy)cyclopentyl]-2′-fluoro[3,3′-bipyridine]-5-carboxamide]
< 10 | < 10 | 100 to 1000 | COc1ccc(-c2cnc(N)c(C(=O)N[C@H]3CCC[C@@H]3OCc3ccc(-c4ccc5c(c4)CC[C@@H]5N4CCN(C)CC4)cc3)c2)cn1 [Example 152, 6-amino-6′-methoxy-N-[(1S,2S)-2-({4-[(1S)-1-(4-methylpiperazin-1-yl)-2,3-dihydro-1H-inden-5-yl]phenyl}methoxy)cyclopentyl][3,3′-bipyridine]-5-carboxamide]
< 10 | < 10 | 100 to 1000 | N#Cc1ccc(-c2cnc(N)c(C(=O)N[C@H]3CCC[C@@H]3OCc3ccc(-c4ccc5c(c4)CC[C@@H]5N4CCN(CCO)CC4)cc3)c2)cn1 [Example 153, 6-amino-6′-cyano-N-{(1S,2S)-2-[(4-{(1S)-1-[4-(2-hydroxyethyl)piperazin-1-yl]-2,3-dihydro-1H-inden-5-yl}phenyl)methoxy]cyclopentyl}[3,3′-bipyridine]-5-carboxamide]
< 10 | < 10 | 100 to 1000 | CN1CCN([C@H]2CCc3cc(-c4ccc(CO[C@H]5CCC[C@@H]5NC(=O)c5cc(-c6ccc(C#N)nc6)cnc5N)cc4)ccc32)CC1 [Example 154, 6-amino-6′-cyano-N-[(1S,2S)-2-({4-[(1S)-1-(4-methylpiperazin-1-yl)-2,3-dihydro-1H-inden-5-yl]phenyl}methoxy)cyclopentyl][3,3′-bipyridine]-5-carboxamide]
< 10 | < 10 | 100 to 1000 | COc1c(-c2cnn(C)c2)cnc(N)c1C(=O)N[C@H]1CCC[C@@H]1OCc1ccc(-c2ccc3c(c2)CC[C@@H]3N2CCN(CCO)CC2)cc1 [Example 155, 2-amino-N-{(1S,2S)-2-[(4-{(1S)-1-[4-(2-hydroxyethyl)piperazin-1-yl]-2,3-dihydro-1H-inden-5-yl}phenyl)methoxy]cyclopentyl}-4-methoxy-5-(1-methyl-1H-pyrazol-4-yl)pyridine-3-carboxamide]
100 to 1000 | > 1000 | > 1000 | Cn1cc(-c2cnc(N)c(C(=O)N[C@H]3CCC[C@@H]3OCc3ccc(-c4ccc5c(c4)ncn5C4CCN(CCO)CC4)cc3)c2)cn1 [Example 156, 2-amino-N-{(1S,2S)-2-[(4-{1-[1-(2-hydroxyethyl)piperidin-4-yl]-1H-benzimidazol-5-yl}phenyl)methoxy]cyclopentyl}-5-(1-methyl-1H-pyrazol-4-yl)pyridine-3-carboxamide]
< 10 | < 10 | 100 to 1000 | COc1c(-c2cnn(C)c2)cnc(N)c1C(=O)N[C@H]1CCC[C@@H]1OCc1ccc(-c2ccc3c(c2)CC[C@@H]3N2CCN(C)CC2)cc1 [Example 157, 2-amino-4-methoxy-N-[(1S,2S)-2-({4-[(1S)-1-(4-methylpiperazin-1-yl)-2,3-dihydro-1H-inden-5-yl]phenyl}methoxy)cyclopentyl]-5-(1-methyl-1H-pyrazol-4-yl)pyridine-3-carboxamide]
< 10 | < 10 | 10 to 100 | Cn1cc(-c2cnc(N)c(C(=O)N[C@H]3CCC[C@@H]3OCc3ccc(-c4cnc5c(c4)C(C)(C)CCN5C4CCN(CCO)CC4)cc3)c2)cn1 [Example 158, 2-amino-N-{(1S,2S)-2-[(4-{8-[1-(2-hydroxyethyl)piperidin-4-yl]-5,5-dimethyl-5,6,7,8-tetrahydro-1,8-naphthyridin-3-yl}phenyl)methoxy]cyclopentyl}-5-(1-methyl-1H-pyrazol-4-yl)pyridine-3-carboxamide]
< 10 | < 10 | 10 to 100 | Cn1cc(-c2cnc(N)c(C(=O)N[C@H]3CCC[C@@H]3OCc3ccc(-c4cnc5c(c4)CCCN5C4CCN(CCO)CC4)cc3)c2)cn1 [Example 162, 2-amino-N-{(1S,2S)-2-[(4-{8-[1-(2-hydroxyethyl)piperidin-4-yl]-5,6,7,8-tetrahydro-1,8-naphthyridin-3-yl}phenyl)methoxy]cyclopentyl}-5-(1-methyl-1H-pyrazol-4-yl)pyridine-3-carboxamide]
< 10 | < 10 | 10 to 100 | CN1CCN([C@H]2CCCc3cc(-c4ccc(CO[C@H]5CCC[C@@H]5NC(=O)c5cc(-c6cccnc6F)cnc5N)cc4)ccc32)CC1 [Example 163, 6-amino-2′-fluoro-N-[(1S,2S)-2-({4-[(5S)-5-(4-methylpiperazin-1-yl)-5,6,7,8-tetrahydronaphthalen-2-yl]phenyl}methoxy)cyclopentyl][3,3′-bipyridine]-5-carboxamide]
10 to 100 | 10 to 100 | > 1000 | Cn1cc(-c2cnc(N)c(C(=O)N[C@H]3CCC[C@@H]3OCc3ccc(-c4ccc5c(c4)CCC[C@H]5N4CCN(C[C@H](O)CO)CC4)cc3)c2)cn1 [Example 170, 2-amino-N-[(1S,2S)-2-({4-[(5R)-5-{4-[(2S)-2,3-dihydroxypropyl]piperazin-1-yl}-5,6,7,8-tetrahydronaphthalen-2-yl]phenyl}methoxy)cyclopentyl]-5-(1-methyl-1H-pyrazol-4-yl)pyridine-3-carboxamide]
< 10 | < 10 | 10 to 100 | Cc1ncc(-c2cnc(N)c(C(=O)N[C@H]3CCC[C@@H]3OCc3ccc(-c4ccc5c(c4)CC[C@@H]5N4CCN(CCO)CC4)cc3)c2)s1 [Example 172, 2-amino-N-{(1S,2S)-2-[(4-{(1S)-1-[4-(2-hydroxyethyl)piperazin-1-yl]-2,3-dihydro-1H-inden-5-yl}phenyl)methoxy]cyclopentyl}-5-(2-methyl-1,3-thiazol-5-yl)pyridine-3-carboxamide]
< 10 | < 10 | 10 to 100 | Nc1ncc(-c2ccns2)cc1C(=O)N[C@H]1CCC[C@@H]1OCc1ccc(-c2ccc3c(c2)CC[C@@H]3N2CCN(CCO)CC2)cc1 [Example 174, 2-amino-N-{(1S,2S)-2-[(4-{(1S)-1-[4-(2-hydroxyethyl)piperazin-1-yl]-2,3-dihydro-1H-inden-5-yl}phenyl)methoxy]cyclopentyl}-5-(1,2-thiazol-5-yl)pyridine-3-carboxamide]
< 10 | < 10 | 10 to 100 | Cc1cc(-c2cnc(N)c(C(=O)N[C@H]3CCC[C@@H]3OCc3ccc(-c4ccc5c(c4)CC[C@@H]5N4CCN(CCO)CC4)cc3)c2)sn1 [Example 175, 2-amino-N-{(1S,2S)-2-[(4-{(1S)-1-[4-(2-hydroxyethyl)piperazin-1-yl]-2,3-dihydro-1H-inden-5-yl}phenyl)methoxy]cyclopentyl}-5-(3-methyl-1,2-thiazol-5-yl)pyridine-3-carboxamide]
< 10 | < 10 | 10 to 100 | Nc1ncc(-c2cncs2)cc1C(=O)N[C@H]1CCC[C@@H]1OCc1ccc(-c2ccc3c(c2)CC[C@@H]3N2CCN(CCO)CC2)cc1 [Example 176, 2-amino-N-{(1S,2S)-2-[(4-{(1S)-1-[4-(2-hydroxyethyl)piperazin-1-yl]-2,3-dihydro-1H-inden-5-yl}phenyl)methoxy]cyclopentyl}-5-(1,3-thiazol-5-yl)pyridine-3-carboxamide]
